Measured values reported in ChEMBL document CHEMBL1201862, “PubChem BioAssay data set” (2004).
Activity calls are given as the source filed them.

Legend:
NADPH oxidase 1 = NADPH oxidase 1 (Homo sapiens, UniProt Q9Y5S8); assay: Late-stage luminescence-based cell-based dose response assay to identify inhibitors of NADPH oxidase 1 (NOX1): Synthesized analogs 2.; format: functional
[1] = target: Potassium voltage-gated channel subfamily KQT member 2 (Rattus norvegicus, UniProt O88943, W236L); assay: KCNQ2 channel potentiators, dose response, mechanism study for KCNQ2 potentiator project, cell-based, automated electrophysiology (AID 2603); format: functional
[2] = Shn3 3'UTR reporter inhibitors, dose response, cell-based, Clone20 osteoblasts, firefly luciferase, cherry-picked (AID 624132); format: functional;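 further: firefly luciferase luminescence from reporter carrying the Shn3 3'UTR in osteoblasts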
Protein RecA = target: T1, Protein RecA (Mycobacterium tuberculosis, UniProt P9WHJ3); assay: Fluorescence Cell-Free Homogeneous Dose Retest to Identify Inhibitors of RecA-Intein Splicing Activity. [Related pubchem assays (depositor defined):AID2097, AID2223, AID489010, AID492950]; format: functional
T1 sequence (P9WHJ3 whole entry): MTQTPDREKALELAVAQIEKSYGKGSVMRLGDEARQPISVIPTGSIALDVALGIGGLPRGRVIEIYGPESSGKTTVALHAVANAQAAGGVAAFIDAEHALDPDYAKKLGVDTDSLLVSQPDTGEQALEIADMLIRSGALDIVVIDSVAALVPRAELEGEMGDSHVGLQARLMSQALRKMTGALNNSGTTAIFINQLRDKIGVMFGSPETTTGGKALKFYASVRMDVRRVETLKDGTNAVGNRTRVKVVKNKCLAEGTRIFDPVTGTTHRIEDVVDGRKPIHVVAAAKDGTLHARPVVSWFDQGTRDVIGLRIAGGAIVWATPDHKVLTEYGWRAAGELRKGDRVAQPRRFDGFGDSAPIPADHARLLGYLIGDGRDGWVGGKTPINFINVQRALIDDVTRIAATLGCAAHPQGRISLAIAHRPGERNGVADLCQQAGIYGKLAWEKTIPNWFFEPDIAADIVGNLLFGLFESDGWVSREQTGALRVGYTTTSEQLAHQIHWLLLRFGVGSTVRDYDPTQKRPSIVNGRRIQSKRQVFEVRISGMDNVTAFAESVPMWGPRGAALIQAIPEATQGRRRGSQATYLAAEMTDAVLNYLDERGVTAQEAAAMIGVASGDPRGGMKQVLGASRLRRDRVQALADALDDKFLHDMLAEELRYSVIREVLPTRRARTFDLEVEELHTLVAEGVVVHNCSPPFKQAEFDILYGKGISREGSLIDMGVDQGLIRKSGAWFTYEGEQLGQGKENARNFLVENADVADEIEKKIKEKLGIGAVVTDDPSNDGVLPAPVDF

[3] = target: T2, High affinity choline transporter 1 (Homo sapiens, UniProt Q9GZV3); assay: CHT inhibitors, dose response, cell-based, 10-point CRC, membrane potential dye (AID 588401); format: functional;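 further: membrane potential dye fluorescence of choline-evoked depolarization via CHT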
T2 sequence (Q9GZV3 whole entry): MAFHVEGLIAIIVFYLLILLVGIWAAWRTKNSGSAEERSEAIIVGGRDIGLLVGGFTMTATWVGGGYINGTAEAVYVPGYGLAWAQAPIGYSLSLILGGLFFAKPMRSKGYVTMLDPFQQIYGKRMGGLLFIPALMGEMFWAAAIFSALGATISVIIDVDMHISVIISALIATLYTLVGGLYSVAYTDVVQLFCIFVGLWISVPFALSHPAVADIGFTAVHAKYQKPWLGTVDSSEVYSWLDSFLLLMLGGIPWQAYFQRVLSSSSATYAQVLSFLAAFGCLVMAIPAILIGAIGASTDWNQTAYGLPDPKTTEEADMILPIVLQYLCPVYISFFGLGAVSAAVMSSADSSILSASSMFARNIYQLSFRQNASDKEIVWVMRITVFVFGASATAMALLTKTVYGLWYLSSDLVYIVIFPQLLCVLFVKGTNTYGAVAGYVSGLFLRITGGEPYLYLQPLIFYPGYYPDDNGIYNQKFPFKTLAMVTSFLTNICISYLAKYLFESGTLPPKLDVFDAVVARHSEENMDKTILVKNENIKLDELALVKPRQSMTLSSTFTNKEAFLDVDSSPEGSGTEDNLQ

[4] = target: T2, High affinity choline transporter 1; assay: CHT inhibitors, dose response, cell-based, 5-point CRC, membrane potential dye (AID 504840); format: functional
[5] = control 3'UTR Renilla luciferase suppression, dose response, counter-screen for Shn3 inhibitor project, cell-based, Clone20-Shn3RL, cherry-picked (AID 624133); format: functional
Genome polyprotein = Genome polyprotein (dengue virus type 2, UniProt P29990); assay: Dengue-2 NS5 methyltransferase inhibitors, primary screen, biochemical, confirmation dose response (AID 588689); format: functional
Genome polyprotein, sequence (P29990 2492-3391 limits assumed): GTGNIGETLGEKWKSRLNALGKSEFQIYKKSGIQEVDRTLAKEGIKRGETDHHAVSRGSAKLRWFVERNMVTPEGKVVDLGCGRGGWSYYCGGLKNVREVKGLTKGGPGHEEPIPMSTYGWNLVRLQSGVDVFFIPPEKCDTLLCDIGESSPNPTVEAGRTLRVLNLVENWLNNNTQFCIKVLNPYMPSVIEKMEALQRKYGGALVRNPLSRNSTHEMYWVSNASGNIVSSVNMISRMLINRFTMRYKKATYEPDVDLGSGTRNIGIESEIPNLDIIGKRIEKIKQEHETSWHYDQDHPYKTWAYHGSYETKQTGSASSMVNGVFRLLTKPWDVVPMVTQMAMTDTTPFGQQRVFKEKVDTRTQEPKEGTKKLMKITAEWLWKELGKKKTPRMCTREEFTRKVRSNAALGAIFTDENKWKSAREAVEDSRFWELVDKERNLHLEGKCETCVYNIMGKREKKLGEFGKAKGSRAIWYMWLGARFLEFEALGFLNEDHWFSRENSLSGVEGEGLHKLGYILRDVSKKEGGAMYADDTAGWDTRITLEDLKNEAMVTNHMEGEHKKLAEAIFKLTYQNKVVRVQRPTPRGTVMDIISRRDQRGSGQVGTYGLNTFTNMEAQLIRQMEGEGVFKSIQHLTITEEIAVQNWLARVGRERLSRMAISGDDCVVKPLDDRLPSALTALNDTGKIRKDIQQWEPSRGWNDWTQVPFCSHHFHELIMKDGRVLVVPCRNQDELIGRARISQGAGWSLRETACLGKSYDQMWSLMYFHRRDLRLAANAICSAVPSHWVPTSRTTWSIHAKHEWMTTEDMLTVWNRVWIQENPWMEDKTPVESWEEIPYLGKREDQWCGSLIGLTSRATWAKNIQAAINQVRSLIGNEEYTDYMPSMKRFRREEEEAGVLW

[6] = target: ATP-binding cassette sub-family B member 6 (Homo sapiens, UniProt Q9NP58); assay: ABCB6 transporter inhibitors, porphyrin accumulation, dose response, flow cytometry, K562-ABCB6 cells, cherry pick 02 (AID 624487); format: functional; conditions: read-out: EC50_MICROM
ATP-binding cassette sub-family B member 6, sequence (Q9NP58 whole entry): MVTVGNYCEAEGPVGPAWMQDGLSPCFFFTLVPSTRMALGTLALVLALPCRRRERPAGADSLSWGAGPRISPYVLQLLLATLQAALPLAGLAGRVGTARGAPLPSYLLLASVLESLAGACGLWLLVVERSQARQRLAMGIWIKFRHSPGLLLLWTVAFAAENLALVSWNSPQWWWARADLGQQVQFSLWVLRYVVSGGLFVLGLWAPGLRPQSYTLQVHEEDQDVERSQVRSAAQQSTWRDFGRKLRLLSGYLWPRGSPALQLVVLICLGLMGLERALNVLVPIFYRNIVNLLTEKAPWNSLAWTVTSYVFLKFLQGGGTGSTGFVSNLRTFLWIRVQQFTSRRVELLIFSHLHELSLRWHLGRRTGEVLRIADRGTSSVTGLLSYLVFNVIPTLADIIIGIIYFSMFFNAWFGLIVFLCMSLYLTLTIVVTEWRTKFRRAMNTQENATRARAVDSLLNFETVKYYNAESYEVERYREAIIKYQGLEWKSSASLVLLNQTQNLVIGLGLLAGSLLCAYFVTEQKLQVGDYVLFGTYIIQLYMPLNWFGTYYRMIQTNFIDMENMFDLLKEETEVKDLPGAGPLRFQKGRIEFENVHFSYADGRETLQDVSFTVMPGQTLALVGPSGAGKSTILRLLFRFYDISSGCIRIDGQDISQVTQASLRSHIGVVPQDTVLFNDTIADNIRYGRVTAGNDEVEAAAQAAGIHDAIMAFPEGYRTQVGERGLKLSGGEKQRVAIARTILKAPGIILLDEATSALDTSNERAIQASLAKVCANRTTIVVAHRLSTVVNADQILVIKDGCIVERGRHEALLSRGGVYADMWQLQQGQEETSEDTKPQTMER

[7] = HepG2 cell cytotoxicity, dose response, cytotoxicity control for Shn3 inhibitor project, CellTiter-Glo, cherry-picked (AID 624134); format: functional, cell-based
Vero [8] = assay: Vero cell cytotoxicity, cytotoxicity control for flavivirus capping enzyme inhibitors (AID 588742); format: functional; conditions: Chlorocebus sabaeus
[9] = target: T3, Replicative DNA helicase DnaB (Mycobacterium tuberculosis, UniProt P9WMR3); assay: DnaB intein splicing inhibitors, dose response, biochemical, cell-free fluorescence (AID 449749); format: functional
T3 sequence (P9WMR3 whole entry): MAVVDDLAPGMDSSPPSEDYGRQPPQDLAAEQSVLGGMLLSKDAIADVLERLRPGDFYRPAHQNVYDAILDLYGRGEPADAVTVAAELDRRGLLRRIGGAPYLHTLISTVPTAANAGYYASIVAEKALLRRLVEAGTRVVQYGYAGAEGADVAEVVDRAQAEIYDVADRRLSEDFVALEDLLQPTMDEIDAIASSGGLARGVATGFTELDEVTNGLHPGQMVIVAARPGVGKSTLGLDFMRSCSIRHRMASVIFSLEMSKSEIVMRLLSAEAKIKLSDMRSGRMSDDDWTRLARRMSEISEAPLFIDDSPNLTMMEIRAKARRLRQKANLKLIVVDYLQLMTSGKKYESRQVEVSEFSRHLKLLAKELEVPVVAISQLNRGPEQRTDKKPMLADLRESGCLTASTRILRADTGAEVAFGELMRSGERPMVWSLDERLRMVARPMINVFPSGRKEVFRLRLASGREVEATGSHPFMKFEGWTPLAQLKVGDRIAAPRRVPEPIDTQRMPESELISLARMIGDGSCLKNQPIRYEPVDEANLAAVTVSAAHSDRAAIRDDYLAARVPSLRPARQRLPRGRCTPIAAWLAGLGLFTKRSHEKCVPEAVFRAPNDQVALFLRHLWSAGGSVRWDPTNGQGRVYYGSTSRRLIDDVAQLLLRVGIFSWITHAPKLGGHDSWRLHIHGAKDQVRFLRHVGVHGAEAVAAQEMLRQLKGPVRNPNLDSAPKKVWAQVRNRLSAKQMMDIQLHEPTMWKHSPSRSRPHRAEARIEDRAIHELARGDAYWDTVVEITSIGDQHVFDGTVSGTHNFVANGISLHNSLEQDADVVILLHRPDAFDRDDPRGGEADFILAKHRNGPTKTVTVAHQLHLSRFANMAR

Vero [10] = assay: cells; format: functional; conditions: Chlorocebus sabaeus
Vero [11] = assay: host cell cytotoxicity of antiviral hits, dose response, cytotoxicity control for West Nile virus antiviral project, secondary assay (AID 1650); format: functional; conditions: Chlorocebus sabaeus
[12] = target: SWI/SNF-related matrix-associated actin-dependent regulator of chromatin subfamily A member 2 (Homo sapiens, UniProt P51531); assay: Luminescence-based cell-based high throughput dose response assay to identify activators of the function of SWI/SNF related, matrix associated, actin dependent regulator of chromatin, subfamily a, member 2 (SMARCA2, BRM).; format: functional
SWI/SNF-related matrix-associated actin-dependent regulator of chromatin subfamily A member 2, sequence (P51531 whole entry): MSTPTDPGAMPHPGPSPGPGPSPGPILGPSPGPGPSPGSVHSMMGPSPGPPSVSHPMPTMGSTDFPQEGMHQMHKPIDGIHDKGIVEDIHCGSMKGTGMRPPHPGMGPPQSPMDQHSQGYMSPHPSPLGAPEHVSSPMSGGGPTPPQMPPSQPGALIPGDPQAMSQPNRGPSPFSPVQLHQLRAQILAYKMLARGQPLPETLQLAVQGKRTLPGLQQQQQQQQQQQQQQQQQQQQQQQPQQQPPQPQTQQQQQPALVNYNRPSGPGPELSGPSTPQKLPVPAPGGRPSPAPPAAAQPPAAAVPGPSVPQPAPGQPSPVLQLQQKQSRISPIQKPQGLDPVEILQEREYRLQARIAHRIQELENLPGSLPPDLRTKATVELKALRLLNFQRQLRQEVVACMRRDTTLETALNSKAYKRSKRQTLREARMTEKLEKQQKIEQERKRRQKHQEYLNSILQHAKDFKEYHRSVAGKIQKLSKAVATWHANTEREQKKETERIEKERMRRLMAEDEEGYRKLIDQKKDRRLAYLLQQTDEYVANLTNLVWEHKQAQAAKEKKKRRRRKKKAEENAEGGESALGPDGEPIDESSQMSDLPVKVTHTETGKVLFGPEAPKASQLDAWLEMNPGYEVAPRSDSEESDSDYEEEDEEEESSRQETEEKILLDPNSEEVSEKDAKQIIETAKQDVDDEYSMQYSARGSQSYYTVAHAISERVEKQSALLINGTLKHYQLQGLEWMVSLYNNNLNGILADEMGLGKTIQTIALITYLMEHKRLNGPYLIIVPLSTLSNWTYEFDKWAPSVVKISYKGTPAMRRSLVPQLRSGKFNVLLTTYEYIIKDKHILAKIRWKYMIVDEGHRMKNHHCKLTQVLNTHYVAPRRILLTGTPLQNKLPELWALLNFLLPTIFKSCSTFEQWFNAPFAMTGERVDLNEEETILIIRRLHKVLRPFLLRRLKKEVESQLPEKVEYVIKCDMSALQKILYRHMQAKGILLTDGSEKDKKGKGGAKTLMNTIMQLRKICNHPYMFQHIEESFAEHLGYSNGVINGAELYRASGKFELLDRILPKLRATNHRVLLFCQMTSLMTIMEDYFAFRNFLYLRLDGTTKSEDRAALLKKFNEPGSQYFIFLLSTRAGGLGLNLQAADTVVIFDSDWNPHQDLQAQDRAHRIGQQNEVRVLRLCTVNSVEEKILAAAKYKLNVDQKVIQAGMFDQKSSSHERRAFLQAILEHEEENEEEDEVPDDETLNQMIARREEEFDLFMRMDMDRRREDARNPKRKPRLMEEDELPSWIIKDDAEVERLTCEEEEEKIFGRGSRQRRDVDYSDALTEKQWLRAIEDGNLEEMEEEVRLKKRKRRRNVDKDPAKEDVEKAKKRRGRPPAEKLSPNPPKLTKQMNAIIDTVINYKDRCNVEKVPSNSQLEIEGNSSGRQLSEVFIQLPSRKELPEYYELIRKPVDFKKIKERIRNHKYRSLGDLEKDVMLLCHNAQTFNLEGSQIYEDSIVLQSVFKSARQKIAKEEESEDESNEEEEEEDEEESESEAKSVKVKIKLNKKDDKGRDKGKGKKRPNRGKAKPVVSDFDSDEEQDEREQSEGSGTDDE

[13] = Counterscreen for activators of the function of SWI/SNF related, matrix associated, actin dependent regulator of chromatin, subfamily a, member 2 (SMARCA2, BRM): Luminescence-based cell-based high throughput dose response assay to identify non-selective compounds using the VP16 reporter assay.; format: functional
[14] = target: Glyceraldehyde-3-phosphate dehydrogenase (Homo sapiens, UniProt P04406)
Glyceraldehyde-3-phosphate dehydrogenase, sequence (P04406 whole entry): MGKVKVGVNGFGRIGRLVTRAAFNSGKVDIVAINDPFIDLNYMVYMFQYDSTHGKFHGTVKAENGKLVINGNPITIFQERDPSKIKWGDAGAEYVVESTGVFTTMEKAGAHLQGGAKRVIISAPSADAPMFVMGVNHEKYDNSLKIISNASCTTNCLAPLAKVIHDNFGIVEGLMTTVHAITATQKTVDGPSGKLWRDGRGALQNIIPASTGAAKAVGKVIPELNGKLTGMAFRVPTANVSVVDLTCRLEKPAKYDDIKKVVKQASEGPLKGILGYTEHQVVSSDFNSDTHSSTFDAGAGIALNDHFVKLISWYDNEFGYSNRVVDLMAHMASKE

Bcl-2-related protein A1 [15] = target: T4, Bcl-2-related protein A1 (Mus musculus, UniProt Q07440); assay: Bfl-1 inhibitors blocking BH3 peptide binding, confirmation, biochemical, TR-FRET, mouse Bfl-1 (AID 621);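 further: TR-FRET binding of GST-Bfl-1 to FITC-labelled Bid peptide via terbium antibody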
T4 sequence (Q07440 whole entry): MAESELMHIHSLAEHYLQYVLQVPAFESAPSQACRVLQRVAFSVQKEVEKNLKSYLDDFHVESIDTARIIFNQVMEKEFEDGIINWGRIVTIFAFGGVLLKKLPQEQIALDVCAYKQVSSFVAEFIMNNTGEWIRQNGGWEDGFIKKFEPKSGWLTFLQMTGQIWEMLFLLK

Bcl-2-related protein A1 [16] = target: T4, Bcl-2-related protein A1; assay: Bfl-1 binding inhibitors, SAR follow-up, biochemical, fluorescence polarization (AID 1070)
[17] = target: T5, Small ubiquitin-related modifier 1 (Homo sapiens, UniProt P63165); assay: inhibitors of SUMO1 partner interactions, dose response, biochemical, FRET (AID 624383); format: functional; conditions: read-out: IC50_Mean
T5 sequence (P63165 whole entry): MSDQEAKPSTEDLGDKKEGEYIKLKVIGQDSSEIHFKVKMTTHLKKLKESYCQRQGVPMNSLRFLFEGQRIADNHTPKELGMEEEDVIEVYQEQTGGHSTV

[18] = target: T5, Small ubiquitin-related modifier 1; assay: inhibitors of SUMO1 peptide binding, dose response, biochemical, fluorescence polarization, uHTS hits (AID 624382); format: functional; conditions: read-out: IC50_Mean
[19] = target: Induced myeloid leukemia cell differentiation protein Mcl-1 (Homo sapiens, UniProt Q07820); assay: MCL1-BIM BH3 interaction inhibitors, dose response, biochemical, fluorescence polarization, BIM-BH3 peptide, 1536-well (AID 2217)
Induced myeloid leukemia cell differentiation protein Mcl-1, sequence (Q07820 whole entry): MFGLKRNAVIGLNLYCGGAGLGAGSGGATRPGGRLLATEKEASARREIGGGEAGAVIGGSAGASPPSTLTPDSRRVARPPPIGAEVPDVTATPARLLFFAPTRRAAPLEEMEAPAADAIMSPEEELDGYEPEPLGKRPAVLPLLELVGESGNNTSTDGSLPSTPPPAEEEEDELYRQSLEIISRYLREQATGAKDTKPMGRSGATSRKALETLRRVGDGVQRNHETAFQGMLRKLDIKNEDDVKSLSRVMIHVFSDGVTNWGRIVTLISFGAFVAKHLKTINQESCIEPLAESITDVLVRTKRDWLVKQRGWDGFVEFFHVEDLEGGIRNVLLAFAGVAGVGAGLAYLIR

Caspase-6 = target: T6, Caspase-6 (Homo sapiens, UniProt P55212); assay: human caspase-6 inhibitors, dose response, biochemical, VEID-R110 fluorescence, cherry-pick (AID 720632)
T6 sequence (P55212 whole entry): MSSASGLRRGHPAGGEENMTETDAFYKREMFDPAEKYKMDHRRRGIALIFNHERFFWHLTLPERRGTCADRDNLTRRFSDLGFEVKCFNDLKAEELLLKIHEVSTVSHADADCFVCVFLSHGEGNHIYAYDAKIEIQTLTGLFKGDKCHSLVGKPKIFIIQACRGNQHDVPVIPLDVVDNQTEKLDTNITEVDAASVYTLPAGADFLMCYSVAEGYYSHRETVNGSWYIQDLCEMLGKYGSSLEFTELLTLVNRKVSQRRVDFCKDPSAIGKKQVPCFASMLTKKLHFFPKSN

[20] = target: T7, Carboxy-terminal domain RNA polymerase II polypeptide A small phosphatase 1 (Homo sapiens, UniProt Q9GZU7); assay: inhibitors of CTDSP1, concentration-response testing, biochemical assay, absorbance-based, actives from ultra-high-throughput screening (AID 540297); format: functional
T7 sequence (Q9GZU7 whole entry): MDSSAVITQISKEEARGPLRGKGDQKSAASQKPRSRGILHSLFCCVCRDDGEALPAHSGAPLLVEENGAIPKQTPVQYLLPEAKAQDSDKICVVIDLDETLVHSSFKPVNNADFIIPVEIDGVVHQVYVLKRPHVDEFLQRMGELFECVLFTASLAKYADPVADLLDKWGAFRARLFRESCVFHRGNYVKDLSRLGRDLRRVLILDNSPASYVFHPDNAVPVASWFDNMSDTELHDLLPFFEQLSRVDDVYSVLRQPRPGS

Bcl-2-like protein 1 = Bcl-2-like protein 1 (Homo sapiens, UniProt Q07817); assay: BCL-XL inhibitors, dose response, selectivity assay for MCL1 inhibitor project, biochemical, fluorescence polarization, 1536-well (AID 2218)
Bcl-2-like protein 1, sequence (Q07817 whole entry): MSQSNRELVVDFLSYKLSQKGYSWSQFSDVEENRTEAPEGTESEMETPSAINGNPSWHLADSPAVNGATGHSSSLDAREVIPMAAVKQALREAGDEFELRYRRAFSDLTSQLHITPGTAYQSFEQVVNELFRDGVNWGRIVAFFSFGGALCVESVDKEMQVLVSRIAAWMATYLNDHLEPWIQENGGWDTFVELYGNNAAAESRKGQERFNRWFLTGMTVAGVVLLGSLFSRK

[21] = M. tuberculosis H37Rv growth inhibitors, H37Rv strain (AID 1626); format: functional

NADPH oxidase 1, sequence (Q9Y5S8 whole entry): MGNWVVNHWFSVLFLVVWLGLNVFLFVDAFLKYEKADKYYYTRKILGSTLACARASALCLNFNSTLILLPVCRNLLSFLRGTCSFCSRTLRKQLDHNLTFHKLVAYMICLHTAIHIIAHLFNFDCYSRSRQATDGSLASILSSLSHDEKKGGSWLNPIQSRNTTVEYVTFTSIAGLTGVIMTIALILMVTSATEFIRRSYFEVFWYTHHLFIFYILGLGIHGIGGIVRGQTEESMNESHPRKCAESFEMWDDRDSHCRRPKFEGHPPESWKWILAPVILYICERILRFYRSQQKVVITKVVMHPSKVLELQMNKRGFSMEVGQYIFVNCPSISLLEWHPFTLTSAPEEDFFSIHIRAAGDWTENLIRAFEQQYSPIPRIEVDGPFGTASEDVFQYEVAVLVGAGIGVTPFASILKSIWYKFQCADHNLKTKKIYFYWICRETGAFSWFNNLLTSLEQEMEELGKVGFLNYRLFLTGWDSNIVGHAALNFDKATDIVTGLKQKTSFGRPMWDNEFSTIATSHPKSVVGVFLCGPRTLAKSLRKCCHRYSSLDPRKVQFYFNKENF

Compound: C=CC(=O)Nc1ccc2c(c1)Sc1ccccc1N2C
- IC50 (NADPH oxidase 1): 2.38 µM (active)

Compound: CCc1nnc(NC(=O)c2nc(S(=O)(=O)Cc3ccc(C)cc3)ncc2Cl)s1
- EC50 [1]: 4.8 µM (active)
- AC50 [2]: 3.01 µM (active)
- EC50 (Protein RecA): 4.11 µM (active)
- IC50 [3]: 3.11 µM (active)
- IC50 [4]: 3.31 µM (active)
- AC50 [5]: 6.18 µM (active)
- IC50 (Genome polyprotein): > 100 µM (active)
- EC50 [6]: 29.5 µM (active)
- AC50 [7]: > 70 µM (inactive)
- CC50 (Vero [8]): 28.9 µM (active)
- AC50 [9]: 5.97 µM (active)

Compound: COCCNC(=O)/C(C#N)=C/C=C/c1ccccc1[N+](=O)[O-]
- CC50 (Vero [10]): 16 µM (active)
- CC50 (Vero [11]): 13.4 µM (active)
- EC50 [12]: > 91.1 µM (inactive)
- EC50 [13]: > 91.1 µM (inactive)

Compound: O=C1C(Cl)=C(N2CCN(CCO)CC2)C(=O)N1c1cccc([N+](=O)[O-])c1
- IC50 [14]: > 100 µM (not active)
- IC50 (Bcl-2-related protein A1 [15]): 10.8 µM (active)
- IC50 (Bcl-2-related protein A1 [16]): 30.9 µM (active)

Compound: Cc1ccc(C)c(S(=O)(=O)Nc2ccc3oc(C)c(C(=O)O)c3c2)c1
- IC50 [17]: 11.3 µM (active)
- IC50 [18]: > 66.6 µM (inactive)
- IC50 [19]: 18.2 µM (not active)
- AC50 (Caspase-6): 3.67 µM (active)
- IC50 [20]: 3.21 µM (active)
- IC50 (Bcl-2-like protein 1): 93.3 µM (not active)

Compound: Cc1ccccc1NC(=O)Nc1ccc(C(F)(F)F)cc1
- IC50 [21]: > 100 µM (active)
